According to patent publication US20070178161A1, “Use of n-acetryl-d-glucosamine in treating and controlling non-specific inflammations caused by physical or chemical factors” (priority 2003, published 2007):

Legend:
burn models = test: Burn test; type: in vivo, Wistar rats; settings: local application of solid powder, after 3 days, 10 rats per group (control: 2)
Description: 20 Wistar rats were randomly divided into two groups, i.e., control group and test group. The rats of both two groups were made as burn models by dressing gauze with hot distilled water. The rats of the control group were not treated, while the rats of the test group were locally treated by applying a solid powder of the compound of formula (I). After 3 days, 8 rats of the test group formed scab, while only 2 rats of the control group formed scab wherein liquor puris still accumulated below the scab.

[1] = tested on: blunt torn thigh muscle tissue of hind limb; test: Blunt tearing tests of animals; type: in vivo, Kunming mice; settings: 1 ml, after 7 days
Description: 30 Kunming mice were randomly divided into two groups, i.e., 10 mice in control group and 20 mice in test group. The mice of both two groups were treated by a blunt tearing method, wherein a non-specific injury occurred in blunt torn thigh muscle tissue of hind limb of mice. […] 10 mice of control group were normally fed, while the mice of test group were administered with an aqueous solution of N-acetyl-D-glucosamine having a concentration of 5% by weight in a dosage of 1 ml, wherein 10 mice were administered by intra-peritoneal injection, another 10 mice were administered by intramuscular injection. […] The pathological changes of the mice of control group continuously developed or maintained on the original basis, wherein 4 mice suffered paralysis of the injured limb, and another 4 mice had flex and stretch dysfunction.

[2] = in vivo
Description: The toxicological test of the compound of formula (I) includes: • 1. Acute toxicity test: including tests of oral administration, intravenous injection administration, and maximum limit amount for administration; • 2. Ames test; • 3. Micronucleus test of mouse bone marrow cell; • 4. Abnormality test of mouse sperm; • 5. Aberration test of mouse testis chromosome; • 6. Chronic lethal test; • 7. Sub-chronic toxicity (feed for 90 days) test; • 8. Traditional deformity-inducing test.

[3] = tested on: patients with surgical trauma; test: Test for treatment of surgical trauma; type: in vivo; settings: ointment 1 g/10 g in Vaseline, painted on wounds for 3 consecutive days, 8 patients
Description: 8 Patients with surgical trauma, and most of them were facial and forearm abrasion. An ointment with a concentration of 1 g/10 g was prepared by mixing N-acetyl-D-glucosamine and Vaseline, and was painted on wounded parts in a dose dependent upon the area of wound surface for consecutive 3 days.

Proteus Mirabilis = test: Promoting wave test (bio-wave model); type: cell-based; settings: final concentration 0.5% in LB plate, 37° C., 9 hours
[4] = tested on: patients with cold injury; test: Test for treatment of cold injury; type: in vivo; settings: 10 wt % aqueous solution, local, 1 ml to 10 ml per day
Description: 20 Patients with different levels of cold injury were divided into a test group and a control group. The patients in the test group were locally treated with a 10 wt % N-acetyl-D-glucosamine aqueous solution in a dose from 1 ml to 10 ml per day according to symptoms and individual conditions.

[5] = tested on: burned voluntary patients; test: Test for treatment of burn; type: in vivo; settings: sterilized powder on wound surface for 3 consecutive days, 10 patients
Description: In a collaborate project of the bum department of Third Military Medical University, a sterilized N-acetyl-D-glucosamine powder in a dose dependant upon wound surface area was applied to the wound surface of 10 burned voluntary patients for consecutive 3 days.

[6] = 5% aqueous solution, i.p. or i.m., 20 mice in test group (control: 4 of 10)

Compound | rats of the test group that formed scab (burn models) | mice that suffered paralysis of the injured limb [1, 6] | mice with flex and stretch dysfunction [1, 6] | dosage at which acute toxicosis reaction had not appeared [2] | healing of facial abrasion [3] | scar formation [3] | bio-wave pattern of colony (concentric rings) (Proteus Mirabilis) | recovery from cold injury [4] | wound symptoms (edema, blood vessels, secretion) [5] | rate of cambium growth toward the center of the wound ([5]; from the 4th day) | movement of injured limb / mobility of test group ([1]; 5% by weight aqueous solution, intra-peritoneal or intramuscular injection, 20 mice)
CC(=O)N[C@H]1C(O)O[C@H](CO)[C@@H](O)[C@@H]1O.Cl (stereo partly drawn) [N-acetyl-D-glucosamine hydrochloride] | 6 | – | – | – | – | – | – | – | – | – | –
CC(=O)N[C@H]1C(O)O[C@H](CO)[C@@H](O)[C@@H]1O.O=S(=O)(O)O (stereo partly drawn) [N-acetyl-D-glucosamine sulfate] | – | 2 | 2 | – | – | – | – | – | – | – | –
CC(=O)N[C@H]1C(O)O[C@H](CO)[C@@H](O)[C@@H]1O (stereo partly drawn) [compound of formula (I), N-acetyl-D-glucosamine] | 8 | one | – | more than 2 g/kg | rapidly healed | no scar was found on face | many fine waves on each ring | early recovery, and then inflammation and edema were eliminated | edema was alleviated, blood vessel shrank, and secretion was reduced | 1-2 mm per day | could free-run
